Source: the supplement of paper PMC10307832

What was measured:
Assay in all cases: relative viability (nuclei count vs DMSO), 5 days (fraction); higher = more cells survive
Tosedostat + Palbociclib = compound: CC(C)C[C@@H](C(=O)N[C@H](C(=O)OC1CCCC1)c1ccccc1)[C@H](O)C(=O)NO [Tosedostat] + CC(=O)c1c(C)c2cnc(Nc3ccc(N4CCNCC4)cn3)nc2n(C2CCCC2)c1=O [Palbociclib] (partner 0.5 µM)
Outline: (§1)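 Lung cancer cell lines were pin-tool dosed in 1536-well plates on the day after seeding, with either a lone drug or a fixed anchor-drug dose plus five library-drug doses (not always all listed) in √10 steps. Nuclei were counted on 4× images after 5 days. Relative viability is the ratio of treated-well to vehicle-well nuclei counts, with each value a median of duplicate plates.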

Tosedostat + Navitoclax = compound: CC(C)C[C@@H](C(=O)N[C@H](C(=O)OC1CCCC1)c1ccccc1)[C@H](O)C(=O)NO [Tosedostat] + CC1(C)CCC(c2ccc(Cl)cc2)=C(CN2CCN(c3ccc(C(=O)NS(=O)(=O)c4ccc(N[C@H](CCN5CCOCC5)CSc5ccccc5)c(S(=O)(=O)C(F)(F)F)c4)cc3)CC2)C1 [Navitoclax] (partner 0.5 µM)
Outline: as §1

[1] = compound: CC1=NN=C(O1)C2=NN=C(C=C2)N3CCC(CC3)OC4=C(C=CC(=C4)F)Cl + C[C@@H](Oc1cc(-c2cnn(C3CCNCC3)c2)cnc1N)c1c(Cl)ccc(F)c1Cl [Crizotinib] (partner 1 µM)
Outline: as §1

[2] = compound: CC1=NN=C(O1)C2=NN=C(C=C2)N3CCC(CC3)OC4=C(C=CC(=C4)F)Cl + C[C@]1(O)C[C@@H](c2nc(-c3ccc4ccc(-c5ccccc5)nc4c3)c3c(N)nccn32)C1 [Linsitinib] (partner 1 µM)
Outline: as §1

NCI-H1944
relative viability (Tosedostat + Palbociclib; first compound 0.02 µM): 0.315
relative viability (Tosedostat + Palbociclib; first compound 0.06325 µM): 0.356
relative viability (Tosedostat + Palbociclib; first compound 0.2 µM): 0.386
relative viability (Tosedostat + Palbociclib; first compound 0.6325 µM): 0.32
relative viability (Tosedostat + Palbociclib; first compound 2 µM): 0.377
relative viability (Tosedostat + Navitoclax; first compound 0.02 µM): 1.1
relative viability (Tosedostat + Navitoclax; first compound 0.06325 µM): 0.975
relative viability (Tosedostat + Navitoclax; first compound 0.2 µM): 1.08
relative viability (Tosedostat + Navitoclax; first compound 0.6325 µM): 1.02
relative viability (Tosedostat + Navitoclax; first compound 2 µM): 1.01
relative viability ([1]; first compound 0.253 µM): 0.448
relative viability ([1]; first compound 0.8 µM): 0.54
relative viability ([1]; first compound 2.53 µM): 0.566
relative viability ([1]; first compound 8 µM): 0.529
relative viability ([2]; first compound 0.253 µM): 0.626
relative viability ([2]; first compound 0.8 µM): 0.769
relative viability ([2]; first compound 2.53 µM): 0.728
relative viability ([2]; first compound 8 µM): 0.717

NCI-H1975
relative viability (Tosedostat + Palbociclib; first compound 0.02 µM): 0.574
relative viability (Tosedostat + Palbociclib; first compound 0.06325 µM): 0.53
relative viability (Tosedostat + Palbociclib; first compound 0.2 µM): 0.561
relative viability (Tosedostat + Palbociclib; first compound 0.6325 µM): 0.432
relative viability (Tosedostat + Palbociclib; first compound 2 µM): 0.415
relative viability (Tosedostat + Navitoclax; first compound 0.02 µM): 1.06
relative viability (Tosedostat + Navitoclax; first compound 0.06325 µM): 1.14
relative viability (Tosedostat + Navitoclax; first compound 0.2 µM): 1
relative viability (Tosedostat + Navitoclax; first compound 0.6325 µM): 1.01
relative viability (Tosedostat + Navitoclax; first compound 2 µM): 0.869
relative viability ([1]; first compound 0.8 µM): 0.918
relative viability ([1]; first compound 2.53 µM): 0.782
relative viability ([1]; first compound 8 µM): 0.777
relative viability ([2]; first compound 0.8 µM): 0.941
relative viability ([2]; first compound 2.53 µM): 0.815
relative viability ([2]; first compound 8 µM): 0.868

NCI-H1993
relative viability (Tosedostat + Palbociclib; first compound 0.02 µM): 0.72
relative viability (Tosedostat + Palbociclib; first compound 0.06325 µM): 0.688
relative viability (Tosedostat + Palbociclib; first compound 0.2 µM): 0.698
relative viability (Tosedostat + Palbociclib; first compound 0.6325 µM): 0.67
relative viability (Tosedostat + Palbociclib; first compound 2 µM): 0.562
relative viability (Tosedostat + Navitoclax; first compound 0.02 µM): 0.895
relative viability (Tosedostat + Navitoclax; first compound 0.06325 µM): 0.877
relative viability (Tosedostat + Navitoclax; first compound 0.2 µM): 0.817
relative viability (Tosedostat + Navitoclax; first compound 0.6325 µM): 0.747
relative viability (Tosedostat + Navitoclax; first compound 2 µM): 0.603
relative viability ([1]; first compound 0.253 µM): 0.779
relative viability ([1]; first compound 0.8 µM): 0.806
relative viability ([1]; first compound 2.53 µM): 0.794
relative viability ([1]; first compound 8 µM): 0.993
relative viability ([2]; first compound 0.253 µM): 0.679
relative viability ([2]; first compound 0.8 µM): 0.745
relative viability ([2]; first compound 2.53 µM): 0.647
relative viability ([2]; first compound 8 µM): 0.693

NCI-H2009
relative viability (Tosedostat + Palbociclib; first compound 0.02 µM): 0.252
relative viability (Tosedostat + Palbociclib; first compound 0.06325 µM): 0.212
relative viability (Tosedostat + Palbociclib; first compound 0.2 µM): 0.254
relative viability (Tosedostat + Palbociclib; first compound 0.6325 µM): 0.274
relative viability (Tosedostat + Palbociclib; first compound 2 µM): 0.181
relative viability (Tosedostat + Navitoclax; first compound 0.02 µM): 1.2
relative viability (Tosedostat + Navitoclax; first compound 0.06325 µM): 1.12
relative viability (Tosedostat + Navitoclax; first compound 0.2 µM): 1.17
relative viability (Tosedostat + Navitoclax; first compound 0.6325 µM): 1.06
relative viability (Tosedostat + Navitoclax; first compound 2 µM): 1.07
relative viability ([1]; first compound 0.253 µM): 0.565
relative viability ([1]; first compound 0.8 µM): 0.529
relative viability ([1]; first compound 2.53 µM): 0.547
relative viability ([1]; first compound 8 µM): 0.465
relative viability ([2]; first compound 0.253 µM): 0.684
relative viability ([2]; first compound 0.8 µM): 0.636
relative viability ([2]; first compound 2.53 µM): 0.623
relative viability ([2]; first compound 8 µM): 0.589

NCI-H2023
relative viability (Tosedostat + Palbociclib; first compound 0.02 µM): 0.333
relative viability (Tosedostat + Palbociclib; first compound 0.06325 µM): 0.331
relative viability (Tosedostat + Palbociclib; first compound 0.2 µM): 0.368
relative viability (Tosedostat + Palbociclib; first compound 0.6325 µM): 0.344
relative viability (Tosedostat + Palbociclib; first compound 2 µM): 0.424
relative viability (Tosedostat + Navitoclax; first compound 0.02 µM): 1.07
relative viability (Tosedostat + Navitoclax; first compound 0.06325 µM): 0.989
relative viability (Tosedostat + Navitoclax; first compound 0.2 µM): 1.05
relative viability (Tosedostat + Navitoclax; first compound 0.6325 µM): 0.938
relative viability (Tosedostat + Navitoclax; first compound 2 µM): 0.923
relative viability ([1]; first compound 0.253 µM): 0.453
relative viability ([1]; first compound 0.8 µM): 0.493
relative viability ([1]; first compound 2.53 µM): 0.455
relative viability ([1]; first compound 8 µM): 0.441
relative viability ([2]; first compound 0.253 µM): 0.478
relative viability ([2]; first compound 0.8 µM): 0.433
relative viability ([2]; first compound 2.53 µM): 0.557
relative viability ([2]; first compound 8 µM): 0.393

NCI-H2085
relative viability (Tosedostat + Palbociclib; first compound 0.06325 µM): 0.498
relative viability (Tosedostat + Palbociclib; first compound 0.2 µM): 0.474
relative viability (Tosedostat + Palbociclib; first compound 0.6325 µM): 0.512
relative viability (Tosedostat + Palbociclib; first compound 2 µM): 0.561
relative viability (Tosedostat + Navitoclax; first compound 0.02 µM): 1.04
relative viability (Tosedostat + Navitoclax; first compound 0.06325 µM): 1.06
relative viability (Tosedostat + Navitoclax; first compound 0.2 µM): 1.09
relative viability (Tosedostat + Navitoclax; first compound 0.6325 µM): 1.05
relative viability (Tosedostat + Navitoclax; first compound 2 µM): 1.08
relative viability ([1]; first compound 0.253 µM): 0.76
relative viability ([1]; first compound 0.8 µM): 0.656
relative viability ([1]; first compound 2.53 µM): 0.821
relative viability ([1]; first compound 8 µM): 0.683
relative viability ([2]; first compound 0.253 µM): 0.743
relative viability ([2]; first compound 0.8 µM): 0.793
relative viability ([2]; first compound 2.53 µM): 0.792
relative viability ([2]; first compound 8 µM): 0.65

NCI-H2087
relative viability (Tosedostat + Palbociclib; first compound 0.02 µM): 0.247
relative viability (Tosedostat + Palbociclib; first compound 0.06325 µM): 0.288
relative viability (Tosedostat + Palbociclib; first compound 0.2 µM): 0.233
relative viability (Tosedostat + Palbociclib; first compound 0.6325 µM): 0.207
relative viability (Tosedostat + Palbociclib; first compound 2 µM): 0.22
relative viability (Tosedostat + Navitoclax; first compound 0.02 µM): 0.995
relative viability (Tosedostat + Navitoclax; first compound 0.06325 µM): 0.916
relative viability (Tosedostat + Navitoclax; first compound 0.2 µM): 1
relative viability (Tosedostat + Navitoclax; first compound 0.6325 µM): 0.931
relative viability (Tosedostat + Navitoclax; first compound 2 µM): 0.805
relative viability ([1]; first compound 0.253 µM): 0.652
relative viability ([1]; first compound 0.8 µM): 0.598
relative viability ([1]; first compound 2.53 µM): 0.544
relative viability ([1]; first compound 8 µM): 0.486
relative viability ([2]; first compound 0.253 µM): 0.646
relative viability ([2]; first compound 0.8 µM): 0.659
relative viability ([2]; first compound 2.53 µM): 0.621
relative viability ([2]; first compound 8 µM): 0.53

NCI-H2126
relative viability (Tosedostat + Palbociclib; first compound 0.02 µM): 0.328
relative viability (Tosedostat + Palbociclib; first compound 0.06325 µM): 0.352
relative viability (Tosedostat + Palbociclib; first compound 0.2 µM): 0.352
relative viability (Tosedostat + Palbociclib; first compound 0.6325 µM): 0.352
relative viability (Tosedostat + Palbociclib; first compound 2 µM): 0.352
relative viability (Tosedostat + Navitoclax; first compound 0.02 µM): 0.801
relative viability (Tosedostat + Navitoclax; first compound 0.06325 µM): 0.876
relative viability (Tosedostat + Navitoclax; first compound 0.2 µM): 0.894
relative viability (Tosedostat + Navitoclax; first compound 0.6325 µM): 0.852
relative viability (Tosedostat + Navitoclax; first compound 2 µM): 0.721
relative viability ([1]; first compound 0.253 µM): 0.921
relative viability ([1]; first compound 0.8 µM): 0.858
relative viability ([1]; first compound 2.53 µM): 0.891
relative viability ([1]; first compound 8 µM): 0.841
relative viability ([2]; first compound 0.253 µM): 0.67
relative viability ([2]; first compound 0.8 µM): 0.64
relative viability ([2]; first compound 2.53 µM): 0.753
relative viability ([2]; first compound 8 µM): 0.505

NCI-H2228
relative viability (Tosedostat + Palbociclib; first compound 0.02 µM): 1
relative viability (Tosedostat + Palbociclib; first compound 0.06325 µM): 0.865
relative viability (Tosedostat + Palbociclib; first compound 0.2 µM): 0.821
relative viability (Tosedostat + Palbociclib; first compound 0.6325 µM): 0.473
relative viability (Tosedostat + Palbociclib; first compound 2 µM): 0.426
relative viability (Tosedostat + Navitoclax; first compound 0.02 µM): 1
relative viability (Tosedostat + Navitoclax; first compound 0.06325 µM): 0.856
relative viability (Tosedostat + Navitoclax; first compound 0.2 µM): 0.781
relative viability (Tosedostat + Navitoclax; first compound 0.6325 µM): 0.961
relative viability (Tosedostat + Navitoclax; first compound 2 µM): 0.793
relative viability ([1]; first compound 0.253 µM): 0.357
relative viability ([1]; first compound 0.8 µM): 0.408
relative viability ([1]; first compound 2.53 µM): 0.533
relative viability ([1]; first compound 8 µM): 0.42
relative viability ([2]; first compound 0.253 µM): 0.673
relative viability ([2]; first compound 0.8 µM): 0.808
relative viability ([2]; first compound 2.53 µM): 0.481
relative viability ([2]; first compound 8 µM): 0.547
